The text below walks through data of US8575093B2, “Composition and method for treating Streptococcus pneumoniae infection” (priority 2006, dated 2013).

Test [1] concerns S. pneumoniae encapsulated serotype 3 strain WU2. Briefly: Inhibition of S. pneumoniae adhesion to A549 cells, strain WU2. Type of test: cell-based, Streptococcus pneumoniae. As to conditions: 15 μg/well; FIG. 3A. The method, then:
(§1) Inhibition of S. pneumoniae adhesion to A549 cells by addition of phages: A549 cells (type II epithelial lung carcinoma cells; ATCC, Rockville, Md., USA) were grown in DMEM medium supplemented with 10% foetal calf serum with penicillin and streptomycin (100 μg/ml each) at 37° C. in a humidified incubator. A549 cells (2.5×10^4/well) were cultured on fibronectin coated plates, to increase A549 cell adhesion to the wells and prevent their detachment during washings, in the absence of antibiotic for 24 hours at which time the cells reached confluence (5×10^4 cells/well on average). The plates were blocked with 1% gelatine for 1 hour and 10^6 CFU bacteria were added per well. The adhesion of S. pneumoniae to uncoated plates was negligible (<80 CFU/ml). The number of bacteria that adhered to fibronectin coated plates (8000±100 SD CFU/ml on average) was subtracted afterwards to determine the net number of bacteria that adhered to the A549 cells only. rFBA at the denoted concentrations (ranging from 5-30 μg/ml) was added to the cultured cells and incubated for an hour. Following extensive washings S. pneumoniae (10^6 CFU) were added for 1 hour incubation. To identify phages able to interfere in bacterial adhesion the bacteria were preincubated with the phages for 1 hour centrifuged and added to the cultured cells. […]

In test [2] the test system is Unencapsulated S. pneumoniae serotype 3 strain 3.8DW. Briefly: Inhibition of S. pneumoniae adhesion to A549 cells, strain 3.8DW. The settings on record: 20 μg/well; FIG. 3B. It counts as cell-based, Streptococcus pneumoniae. As to the method:
as §1

Test [3] deals with S. pneumoniae unencapsulated serotype 2 strain R6. The test can be described thus: Inhibition of S. pneumoniae adhesion to A549 cells, strain R6. It counts as cell-based, Streptococcus pneumoniae. As to the method: as §1, with “incubation.” for “incubation. To identify phages able to interfere in bacterial adhesion the bacteria were preincubated with the phages for 1 hour centrifuged and added to the cultured cells.”
The ability of FC derived synthetic peptide to interfere in S. pneumoniae adhesion to A459 cells was analyzed. […]

Test [4] has as its system S. pneumoniae serotype 3 strain WU2. Briefly: Intraperitoneal lethal dose systemic infection (sepsis) mouse model. It counts as in vivo, BALB/c mice. From the text: 1) A lethal dose of S. pneumoniae serotype 3 strain WU2 (100 CFU) was used in this experiment. Bacteria were either untreated or treated ex-vivo for 1 hr with FCRP and used to inoculate intraperitoneally 7 weeks old BALB/c mice.
2) A lethal dose of S. pneumoniae serotype 3 strain WU2 (100 CFU) was used in this experiment. Bacteria were co-administered intraperitonealy to 7 weeks old BALB/c mice in the presence and absence of FCRP. […] Furthermore, in mice infected in the absence of FCRP bacteria could be found in the spleens of 100% of the (FIG. 15B) mice.
3) In a similar experiment, the mice were inoculated with bacteria in the presence and absence of FCRP and the mice were monitored for their survival.

Test [5] has the same test system. The test can be described thus: Intranasal inoculation mouse model: nasopharyngeal and lung colonization. It counts as in vivo, BALB/c mice. The settings on record: 10^7 bacteria.

As for “H-Ala-Asp-Ser-Asp-Ser-Asp-Ser-Asp-Leu-Ser-Leu-Glu-Glu-Glu-Arg-OH (H-ADSDSDSDLSLEEER-OH; listed as Homo sapiens) [FCRP, 15 amino acid peptide from Flamingo-cadherin]”, in test [1], the “maximal inhibition of adhesion to A549 cells” value worked out at 80%. In test [2], this substance showed a maximal adhesion inhibition of 41%. Moreover, the “inhibition of adhesion to A549” value in test [3] (5 μg/well, p<0.001) was “significantly”. In test [3] (15 μg/well), the “inhibition of adhesion to A549 cells” value is recorded as 75%. Besides, the survival rate result in test [4] (100 CFU i.p., bacteria treated ex-vivo 1 hr, FIG. 14, p<0.05) is listed as “increased the survival rate of the mice significantly”. The “bacteria in the spleens” value in test [4] (100 CFU i.p., co-administered, FIG. 15) is reported as “no bacteria could be recovered from the spleens”. Further, in test [4] (lethal dose i.p., co-administration, FIG. 16, p<0.001), the survival result is given as “significant increase in survival”. Further, the “bacterial load (FIG. 13A)” value in test [5] (one post inoculation treatment, 3 and 48 hrs) is “reduced bacterial load significantly”. In test [5] (post inoculation treatment, 24 hour), the “bacterial load in lungs (FIG. 13B)” value was “clear reduction in bacterial load”.
